Values of other authors, collected in patent US20100173012A1 (priority 2008, published 2010).

System: Fusarium graminearum
Details: previous work of the inventors

SMILES	use to reduce ascospore discharge in F. graminearum
COc1ccc(CCN(C)CCCC(C#N)(c2ccc(OC)c(OC)c2)C(C)C)cc1OC (stereo not shown) [verapamil]	successfully used
OC[C@@H](O)[C@@H](O)[C@H](O)[C@H](O)CO [mannitol]	successfully used
Cc1ccc(S(=O)(=O)NC(=O)NN2CCCCCC2)cc1 [Tolazamide]	successfully used
O=C(O)CN(CC(=O)O)c1ccccc1OCCOc1ccccc1N(CC(=O)O)CC(=O)O [BAPTA]	successfully used
COc1ccc(Cl)cc1C(=O)NCCc1ccc(S(=O)(=O)NC(=O)NC2CCCCC2)cc1 [glyburide]	successfully used
OCC(O)CO [glycerol]	successfully used
CCN(CC)CCCCCCCCOC(=O)c1cc(OC)c(OC)c(OC)c1 [TMB8]	successfully used
